Experimental data taken from patent US20250281645A1, “Lentiviral Vector” (Ospedale San Raffaele S.r.l., priority 2022, published 2025).

Columns and labels:
Conditions in all cases: mouse, in vivo
Adult mice = tested on: Adult mice
C57 mice = tested on: C57 mice
Procedure: (§1) (a) Experimental design: 8 weeks old mice C57 or Ldlr^−/− (n=4-6 per each condition) are injected with Bortezomib and/or Marl and/or fasted for 24 hours, before receiving LV (dose 2.75×10^10 TU/Kg) i.v. Then, hFIX is monitored in treated mice longitudinally. (b, c) Mean with SEM of hFIX antigen measured in the plasma of LV treated mice over time (4 and 26 wk post LV timepoint). Two-way ANOVA with Dunnett's multiple comparisons test vs LV control, performed for each of the two strains used.
(§2) According to the groups, mice were either faster for 24 hours, injected with Marl 3 hours before LV and/or injected with Bortezomib 1-hour before LV. Circulating hFIX amounts were then monitored longitudinally (FIG. 11A).
Wild-type C57Bl/6 adults, Ldlr/adults, Alb-F8*R593C adults, Ldlr^−/− 2-week old mice and C57 BI/6 2-week old were used in these studies. Founder B6; 129S-7-Ldlrtm1 Her/J mice (referred to as Ldlr^−/−) were obtained from the Jackson Laboratories (stock #:002207). […] C57BL/6 mice were purchased from Jackson laboratories (stock #000664). […]
(§3) hFIX ELISA assay was used to assess hFIX concentration in mouse plasma samples (Affinity Biologicals, FIX-EIA), in accordance with the manufacturer's protocol. Absorbance of each sample was determined spectrophotometrically, using a Multiskan GO microplate reader (Thermo Fisher Scientific) and normalized to antigen standard curves.

Ldlr^−/− mice = tested on: Ldlr^−/− mice
Procedure: as §1, §2
Wild-type C57Bl/6 adults, Ldlr/adults, Alb-F8*R593C adults, Ldlr^−/− 2-week old mice and C57 BI/6 2-week old were used in these studies. Founder B6; 129S-7-Ldlrtm1 Her/J mice (referred to as Ldlr^−/−) were obtained from the Jackson Laboratories (stock #:002207). […] C57BL/6 mice were purchased from Jackson laboratories (stock #000664). […] LV was administered in adult mice, males and females (7-10-weeks of age), through either tail vein or retro-orbital plexus (250-500 μL/mouse). LV was administered in juvenile mice (2 weeks of age) through retro-orbital plexus (100-200 μL/mouse). Mice were bled from the retro-orbital plexus through capillary tubes. Blood was collected in 0.38% sodium citrate buffer, pH 7.4. […] For fasting experiments, mice were starved for 24-hours and then treated or not with LV. For experiments with Bortezomib (Velcade), the drug (1 mg/kg) was administered, once diluted in saline, i.v. 1 hour before LV administration. […]
as §3

CC(C)C[C@H](NC(=O)[C@H](Cc1ccccc1)NC(=O)c1cnccn1)B(O)O [Bortezomib]
VCN in KC (Adult mice): reduced VCN
VCN in LSEC (Adult mice): increase
VCN in hepatocytes (Adult mice): trend of increase
VCN in pDC (Adult mice): reduced VCN
hFIX circulating amounts versus controls (Adult mice; iv): higher than controls
transgene output in combination with fasting, versus LV controls (C57 mice): 11-12 fold
transgene output compared to LV only, single treatment (C57 mice; iv): enhanced transgene output
overall increase in transgene output, combination of fasting and Bortezomib (Ldlr^−/− mice): 4.5-6 fold
transgene output when combined with fasting, compared to use as single treatments (Ldlr^−/− mice): milder increase in Ldlr^−/− than C57
transgene output, single treatment (Ldlr^−/− mice): give an advantage
